Laboratory results reported in patent US20210338557A1, “Oxidized Derivatives of GDF-11 Fragments” (Avon Products, Inc., priority 2019, published 2021).
Where a SMILES comes first, the peptide text is derived from it. [ ]: non-standard residue; d: D form. Met(O2) = CS(=O)(=O)CC[CH](N)C(=O)O; Met(O) = CS(=O)CC[CH](N)C(=O)O

How the values were obtained:
[1] = tested on: Human dermal fibroblast cells; experiment: Collagen (pro-collagen I) secretion by human dermal fibroblasts, HTRF human pro-collagen I kit; assay type: cell-based; conditions: 48 h, relative to vehicle control
Experimental: (§1) Human dermal fibroblast cells were grown in a 96 well plate in DMEM media (available from Corning, N.Y.) supplemented with 10% Fetal Bovine Serum (FBS) and L-glutamine (0.07×10^5 cells/plate). After reaching about 75% confluence, cells were transferred into DMEM media without FBS and incubated for 4-6 hours. Next, cells were treated with a peptide or prodrug thereof (MVV, Ac-MVV) or peptide derivative or prodrug thereof (M(O)2VV, Ac-M(O)2VV, Ac-M(O)VV) at 0.00001%, 0.0001%, 0.0005%, or 0.001% final concentration in DMEM media without FBS for 48 h. After treatment, the media were collected and cell viability was measured using MTT. The amount of collagen or hyaluronic acid (HA) secreted was tested in the media using an HTRF human pro-collagen I kit or an HTRF HABP kit, respectively (each available from Cisbio Inc., Bedford, Mass.).
(§2) The results for collagen production following administration to the fibroblasts are summarized in Table 14 as percent change of collagen production for each active relative to vehicle control. p values are given with respect to the change in collagen on the fibroblasts with vehicle control administration or MVV administration.

explanted skin tissue [2] = experiment: Ex vivo skin explant collagen score (papillary dermis, image analysis); assay type: cell-based, human; conditions: for Collagen score, Mean: days 0, 1, 2, 5, 7
Experimental: (§3) Samples of explanted skin tissue were obtained from an abdominal plasty. Samples (33 in total) were maintained in tissue culture medium at 37° C. in a humid, 5% CO2 atmosphere for the duration of the study.
(§4) The skin tissue explants were then distributed into appropriate controls or treated samples in triplicates. The control received only a vehicle (DMSO), and the treatment samples received vehicle comprising either M(O)2VV or Ac-M(O)2VV at 0.0005%, 0.001%, or 0.01% by weight of the composition. Administration of vehicle or vehicle with the peptide occurred on days 0, 1, 2, 5, and 7.
(§5) Stained tissue sections (in triplicates) were examined for qualitative and semi-qualitative differences between treated and control samples and low and high power using Zeiss Mimax and Midi BF microscope and software system. For HA evaluation, samples were washed and processed with Methylthiazolyldiphenyl-tetrazolium bromide (MTT). MTT is converted to water-insoluble dark blue colored MTT-formazan by mitochondrial dehydrogenases. Subsequently the blue crystals have been solubilized and the color intensity, that is directly proportional to skin vitality, has been measured with a plate reader at a wavelength of 570 nm. For each analyzed skin sample the obtained absorbance value has been normalized upon the weight in grams. Twelve skin suctions were stained with an acian blue stain that dyes acid mucins such as hyaluronan to develop the HA score. Dermal collagen was also measured using a picrosirius red histochemical stain that dyes collagen fibers in purple-red. The papillary dermis was selected for the analysis as thi sis the portion of the dermis more subjected to collagen variation in response to treatment.
(§6) 8-bit grey-scale photomicrographs were captured and transformed from RGB to the standard CIE L*a*b* color space. The L* value for each pixel in the ROI was evaluated using ImageJ software (National Institutes of Health, Bethesda, Md.) with the Color Inspector 3D plug-in. The amount of hyaluron present was evaluated based on the intensity and distribution of blue color in the dermis using an imaging method analogous to that used for procollagen I. Scores reflecting the amount of hyaluronan detected were assigned using an image analysis algorithm proprietary to Cutech Srl. Higher HA scores is indicative of a higher HA content. Similarly, the amount of procollagen I was evaluated based on the intensity and distribution of immunostained procollagen I in the area corresponding to the papillary dermis, just below the epidermis. As above, 8-bit grey-scale photomicrographs were captured and transformed from RGB to the standard CIE L*a*b* color space. The L* value for each pixel in the ROI was evaluated using ImageJ software (National Institutes of Health, Bethesda, Md.) with the Color Inspector 3D plug-in. Scores reflecting the amount of procollagen I detected were assigned using an image analysis algorithm proprietary to Cutech Srl.
Columns marked with “**” were highly significant (p<0.05) with respect to untreated samples and with respect to samples administered vehicle alone (DMSO.

explanted skin tissue [3] = experiment: Ex vivo skin explant HA score (alcian blue stain, image analysis); assay type: cell-based, human; conditions: for HA score, Mean: days 0, 1, 2, 5, 7
Experimental: as §3, §4, §5, §6
Columns marked with “**” were highly significant (p<0.05) with respect to untreated samples and with respect to samples administered vehicle alone (DMSO).

[4] = tested on: Human dermal fibroblast cells; experiment: Hyaluronic acid (HA) secretion by human dermal fibroblasts, HTRF HABP kit; assay type: cell-based; conditions: 48 h, relative to vehicle control
Experimental: as §1
as §2, with “HA” for “collagen”, “13” for “14”, “with respect to […]” for “MVV”

[5] = tested on: Human 3D skin EFT400FT tissues; experiment: HA production in full thickness 3D skin cultures, HTRF HABP kit; assay type: cell-based; conditions: topical daily for 3 days, n=6
Experimental: A series of experiments was conducted to assess the effects of peptide derivatives on the production of hyaluronic acid (HA) on full thickness 3D skin cultures. Five different treatment regimens were assessed: (1) 0.01% by weight M(O)2VV in vehicle; (2) 0.002% by weight M(O)2VV in vehicle; (3) 0.01% by weight Ac-M(O)2VV in vehicle; (4) 0.002% by weight Ac-M(O)2VV in vehicle; and (5) vehicle alone (DMSO). Compositions at the indicated weight percentages in DMSO were applied to 3D skin equivalents daily for 3 consecutive days.
Human 3D skin EFT400FT tissues (MatTek, MA) were cultured following the manufacturer's instructions. Each treatment regimen was topically applied to six 3D skin samples. Different 3D skin samples were assigned to one of treatment regimens (1)-(5) as described above, with six skin tissue models allocated to each treatment regimen (i.e., n=6). Following treatment, media were collected and the amount of hyaluronic acid secreted from the cells was measured using a HTRF HABP kit (available from Cisbio Inc., Bedford, Mass.).
The results for HA production are shown in Table 15. p values are given in relation to administration with vehicle control alone or in relation to MVV.

| Compound | Collagen % change ([1]; 0.00001 wt %) [%] | Collagen % change ([1]; 0.0001 wt %) [%] | Collagen % change ([1]; 0.0005 wt %) [%] | Collagen % change ([1]; 0.001 wt %) [%] | Collagen score % Change Over DMSO (explanted skin tissue [2]; 5 ppm) [%] | Collagen score % Change Over Untreated (explanted skin tissue [2]; 5 ppm) [%] | Collagen score, Mean (explanted skin tissue [2]; 5 ppm in DMSO) | Collagen score % Change Over DMSO (explanted skin tissue [2]; 10 ppm) [%] | Collagen score % Change Over Untreated (explanted skin tissue [2]; 10 ppm) [%] | Collagen score, Mean (explanted skin tissue [2]; 10 ppm in DMSO) | Collagen score % Change Over DMSO (explanted skin tissue [2]; 100 ppm) [%] | Collagen score % Change Over Untreated (explanted skin tissue [2]; 100 ppm) [%] | Collagen score, Mean (explanted skin tissue [2]; 100 ppm in DMSO) | HA score % Change Over DMSO (explanted skin tissue [3]; 5 ppm) [%] | HA score % Change Over Untreated (explanted skin tissue [3]; 5 ppm) [%] | HA score, Mean (explanted skin tissue [3]; 5 ppm in DMSO) | HA % change ([4]; 0.00001 wt %) [%] | HA % change ([4]; 0.0001 wt %) [%] | HA % change ([4]; 0.0005 wt %) [%] | HA % change ([4]; 0.001 wt %) [%] | also measured |
| --- | --- | --- | --- | --- | --- | --- | --- | --- | --- | --- | --- | --- | --- | --- | --- | --- | --- | --- | --- | --- | --- |
| CC(=O)NC(CCS(C)(=O)=O)C(=O)NC(C(=O)NC(C(=O)O)C(C)C)C(C)C (stereo not drawn) [Ac-M(O)2VV] (Ac-[Met(O2)]-Val-Val-OH; configuration not given here) | 12.29 | 11.29 | −0.56 | 13.65 | 73 | 57 | 61.7 | 75 | 59 | 61.9 | 52 | 35 | 59.6 | −7 | −4 | 9.5 | 10.33 | 7.31 | 7.90 | 11.04 | HA score % Change Over DMSO (explanted skin tissue [3]; 10 ppm): 25%; HA score % Change Over Untreated (explanted skin tissue [3]; 10 ppm): 28%; HA score, Mean (explanted skin tissue [3]; 10 ppm in DMSO): 12.7; HA score % Change Over DMSO (explanted skin tissue [3]; 100 ppm): 9%; HA score % Change Over Untreated (explanted skin tissue [3]; 100 ppm): 12%; HA score, Mean (explanted skin tissue [3]; 100 ppm in DMSO): 11.1; % HA change ([5]; 0.002% (20 ppm) in DMSO): 1.386%; % HA change ([5]; 0.01% (100 ppm) in DMSO): 12.47% |
| CC(=O)NC(CC[S+](C)[O-])C(=O)NC(C(=O)NC(C(=O)O)C(C)C)C(C)C (stereo not drawn) [Ac-M(O)VV] (Ac-[Met(O)]-Val-Val-OH; configuration not given here) | 7.20 | 4.59 | 14.02 | 13.49 | – | – | – | – | – | – | – | – | – | – | – | – | 17.50 | 16.95 | 17.69 | 21.87 | – |
| CC(C)C(NC(=O)C(NC(=O)C(N)CCS(C)(=O)=O)C(C)C)C(=O)O (stereo not drawn) [M(O)2VV, methionine sulfone valine valine] (H-[Met(O2)]-Val-Val-OH; configuration not given here) | 5.74 | 12.51 | 1.56 | 6.07 | −7 | −25 | 53.6 | 35 | 18 | 57.9 | 13 | −5 | 55.6 | 18 | 21 | 12 | 14.01 | 17.49 | 10.25 | 19.43 | HA score % Change Over DMSO (explanted skin tissue [3]; 10 ppm): 14%; HA score % Change Over Untreated (explanted skin tissue [3]; 10 ppm): 17%; HA score, Mean (explanted skin tissue [3]; 10 ppm in DMSO): 11.6; HA score % Change Over DMSO (explanted skin tissue [3]; 100 ppm): −4%; HA score % Change Over Untreated (explanted skin tissue [3]; 100 ppm): −1%; HA score, Mean (explanted skin tissue [3]; 100 ppm in DMSO): 9.8; % HA change ([5]; 0.002% (20 ppm) in DMSO): 6.236%; % HA change ([5]; 0.01% (100 ppm) in DMSO): 10.28% |
| MVV (listed as Homo sapiens) [MW, reference compound] | 7.22 | 10.56 | 31.22 | 6.22 | – | – | – | – | – | – | – | – | – | – | – | – | 5.79 | 1.63 | 3.66 | 9.00 | – |
